Where two headings read alike, the source gives them in different places.
Assays:
platelets = assay type: in vivo, cancer patients with solid tumors (humans); conditions: sigmoid Emax model
UGT1A1 = conditions: primarily hepatic UGT1A1; cited from earlier work
white blood cells = assay: Emax model of percent decrease of WBC from baseline to nadir versus exposure; assay type: in vivo, cancer patients with solid tumors (humans)
[1] = lactone form; ref 32 (Leggas et al., 2009); cited from earlier work
[2] = for IIV of clearance: univariate analysis
[3] = more lipophilic than camptothecin; cited from earlier work

CC[C@@]1(O)C(=O)OCc2c1cc1n(c2=O)Cc2c-1nc1ccc(O)cc1c2[Si](C)(C)C(C)(C)C [AR-67, 7-t-butyldimethylsilyl-10-hydroxycamptothecin]
AUC ED50, percent decrease of platelets (platelets; AUC0-∞ as independent variable, 22 patients, Cycle 1): 0.2768 µg·h/mL
Cmax ED50, percent decrease of platelets (platelets; Cmax as independent variable): 0.2811 mg/L
in vitro interaction with UGT1A1 (UGT1A1): weak
AUC ED50, percent decrease of WBC (white blood cells; AUC0-∞ as independent variable, hyperbolic Emax model, 22 patients, Cycle 1): 0.3976 µg·h/mL
Cmax ED50, percent decrease of WBC (white blood cells; Cmax as independent variable, sigmoid Emax model): 0.3268 mg/L
overall protein binding, lactone [1]: 95.4%
AGE on V1 (covariate effect exponent), estimate ([2]; V1=V1TV×(AGE/62)^θ, original dataset): 3.36
Interindividual variability in V1 ([2]; before incorporation of age into the model): 118%
AGE on V1, bootstrap median ([2]; bootstrap n=1000 datasets): 3.48
CL, bootstrap median ([2]; bootstrap n=1000 datasets): 31.9 L/h
Q, bootstrap median ([2]; bootstrap n=1000 datasets): 29.0 L/h
V1, bootstrap median ([2]; bootstrap n=1000 datasets): 6.65 L
V2, bootstrap median ([2]; bootstrap n=1000 datasets): 25.8 L
ω2 V1, bootstrap median ([2]; bootstrap n=1000 datasets): 0.856
Interindividual variability (CV%) of population CL ([2]; final model): 29.1%
V2 (peripheral volume), population estimate ([2]; final model, original dataset): 25.0 L
ω2 CL (interindividual variability), estimate ([2]; final model, original dataset): 0.0849
ω2 V1 (interindividual variability), estimate ([2]; final model, original dataset): 0.957
V1 (central volume), population estimate ([2]; final model, original dataset, typical value for subjects aged 62 years): 6.83 L
Interindividual variability (CV%) of population V1 ([2]; final model, with age as covariate): 97.8%
IIV of clearance ([2]; BSA included as covariate on CL): 25.5%
IIV of clearance ([2]; before inclusion of BSA): 29.2%
lipophilicity relative to camptothecin [3]: about 25 times

— article PMC6713628 (Investigational new drugs, 2019)
